Activity data for 32 molecules are collected here from US11136313B2, “Compounds, compositions, and methods for modulating CFTR” (Proteostasis Therapeutics, Inc., priority 2015, dated 2021).

For the experiment, the target named is T1, ΔF508-CFTR (Homo sapiens, UniProt P13569, DEL508-508).
T1 construct: Primary lung epithelial cells homozygous for the Cystic Fibrosis-causing ΔF508 mutation were differentiated for a minimum of 4 weeks; endogenous in cells; host or cells: primary lung epithelial cells (hBE) homozygous for ΔF508, differentiated at an air-liquid interface
As to the kind of experiment: hBE equivalent current (Ieq) assay: AUC of equivalent chloride current after forskolin/VX-770 in primary lung epithelial cells homozygous for ΔF508. It counts as cell-based. To be noted: relative to CFTR amplifier (Compound A)+VX-809 (3 uM), compound at 10 uM and Compound A at 3 uM, 24 h treatment. An outline of the steps:
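Readout is the increase over vehicle in equivalent chloride current AUC from forskolin/VX-770 addition to bumetanide, measured by current clamp at 36 °C after benzamil block of ENaC. Cultures were homozygous ΔF508 primary lung epithelium grown ≥4 weeks at air-liquid interface and exposed basolaterally to compound for 24 h.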

T1 sequence (P13569 with tags, fused parts or gaps DEL508-508): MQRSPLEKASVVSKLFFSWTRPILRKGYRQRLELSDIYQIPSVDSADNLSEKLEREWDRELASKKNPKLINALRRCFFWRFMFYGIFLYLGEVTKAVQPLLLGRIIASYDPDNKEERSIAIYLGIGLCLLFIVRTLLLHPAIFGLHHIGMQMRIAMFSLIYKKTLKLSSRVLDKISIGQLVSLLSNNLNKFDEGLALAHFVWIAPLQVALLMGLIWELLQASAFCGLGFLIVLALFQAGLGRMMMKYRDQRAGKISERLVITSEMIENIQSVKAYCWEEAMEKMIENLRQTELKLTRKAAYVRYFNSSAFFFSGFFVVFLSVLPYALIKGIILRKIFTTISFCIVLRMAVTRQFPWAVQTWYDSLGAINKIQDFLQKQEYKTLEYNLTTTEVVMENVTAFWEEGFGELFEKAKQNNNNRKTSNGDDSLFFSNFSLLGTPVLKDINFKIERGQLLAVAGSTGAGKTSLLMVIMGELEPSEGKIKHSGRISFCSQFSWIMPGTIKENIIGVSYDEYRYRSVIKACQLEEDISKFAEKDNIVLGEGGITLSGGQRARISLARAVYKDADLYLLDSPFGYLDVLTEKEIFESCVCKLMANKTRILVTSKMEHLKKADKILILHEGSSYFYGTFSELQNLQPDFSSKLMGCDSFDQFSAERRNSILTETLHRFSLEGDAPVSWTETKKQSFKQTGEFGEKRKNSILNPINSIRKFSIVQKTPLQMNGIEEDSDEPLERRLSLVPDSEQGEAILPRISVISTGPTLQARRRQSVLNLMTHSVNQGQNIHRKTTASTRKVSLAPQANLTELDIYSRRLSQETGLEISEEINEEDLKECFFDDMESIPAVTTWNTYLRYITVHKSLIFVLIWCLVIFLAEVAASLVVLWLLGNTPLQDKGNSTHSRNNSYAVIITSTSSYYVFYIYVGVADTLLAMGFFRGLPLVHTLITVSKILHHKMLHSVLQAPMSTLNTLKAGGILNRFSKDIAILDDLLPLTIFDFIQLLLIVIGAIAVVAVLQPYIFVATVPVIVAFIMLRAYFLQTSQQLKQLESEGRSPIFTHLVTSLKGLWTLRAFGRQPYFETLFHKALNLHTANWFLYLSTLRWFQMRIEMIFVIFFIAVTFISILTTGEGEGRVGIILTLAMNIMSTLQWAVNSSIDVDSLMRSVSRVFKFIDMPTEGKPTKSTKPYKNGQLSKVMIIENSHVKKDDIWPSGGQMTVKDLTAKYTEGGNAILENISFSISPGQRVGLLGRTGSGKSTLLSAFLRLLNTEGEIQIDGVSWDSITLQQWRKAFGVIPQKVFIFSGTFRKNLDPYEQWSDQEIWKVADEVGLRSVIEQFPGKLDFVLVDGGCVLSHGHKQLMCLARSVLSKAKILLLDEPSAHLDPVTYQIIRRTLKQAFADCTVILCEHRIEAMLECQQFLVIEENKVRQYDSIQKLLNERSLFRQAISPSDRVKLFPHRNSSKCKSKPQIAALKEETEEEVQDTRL

As to `CCc1c(-c2cc(C(=O)O)c3c(C)ccc(C)c3n2)oc2ccccc12` [Compound 32, 2-(3-Ethyl-1-benzofuran-2-yl)-5,8-dimethylquinoline-4-carboxylic acid], the Activity entry is “++ (activity>50% of CFTR amplifier+VX-809 (3 uM) with compound at 10 uM and Compound A at 3 uM)”.

Turning to `Cc1c(-c2cc(C(=O)[O-])c3c(OC4CC5(COC5)C4)ccc(C)c3n2)sc2ccccc12.[Na+]` [Compound 370], the Activity result is “++ (activity>50% of CFTR amplifier+VX-809 (3 uM) with compound at 10 uM and Compound A at 3 uM)”.

`Cc1c(-c2cc(C(=O)O)c3c(OCc4ccccc4)ccc(C)c3n2)oc2ccccc12` [Compound 30, 5-(benzyloxy)-8-methyl-2-(3-methyl-1-benzofuran-2-yl)quinoline-4-carboxylic acid]: the Activity result is “++ (activity>50% of CFTR amplifier+VX-809 (3 uM) with compound at 10 uM and Compound A at 3 uM)”.

Take `Cc1c(-c2cc(C(=O)[O-])c3c(O[C@H](C)c4ccc(C5COC5)cc4)ccc(C)c3n2)oc2ccccc12.[Na+]` [Compound 285, Sodium 8-Methyl-2-(3-methyl-1-benzofuran-2-yl)-5-[(1R)-1-[4-(oxetan-3-yl)phenyl]ethoxy]quinoline-4-carboxylate]: the Activity entry was “++ (activity>50% of CFTR amplifier+VX-809 (3 uM) with compound at 10 uM and Compound A at 3 uM)”.

With `Cc1c(-c2cc(C(=O)[O-])c3c(OC(C)c4ccc(C5COC5)cc4)ccc(C)c3n2)sc2ccccc12.[Na+]` (centres unmarked) [Compound 373], the Activity result is “++ (activity>50% of CFTR amplifier+VX-809 (3 uM) with compound at 10 uM and Compound A at 3 uM)”.

For the molecule `Cc1c(-c2cc(C(=O)[O-])c3c(O[C@H]4C[C@@H](c5ccccc5)C4)ccc(C)c3n2)sc2ccccc12.[Na+]` [Compound 284, Sodium 8-Methyl-2-(3-methyl-1-benzothiophen-2-yl)-5-[(1s,3s)-3-phenylcyclobutoxy]quinoline-4-carboxylate], the Activity result is “++ (activity>50% of CFTR amplifier+VX-809 (3 uM) with compound at 10 uM and Compound A at 3 uM)”.

As for `CCc1ccc(OCc2ccccc2)c2c(C(=O)O)cc(-c3sc4ccccc4c3C)nc12` [Compound 133, 5-(Benzyloxy)-8-ethyl-2-(3-methyl-1-benzothiophen-2-yl)quinoline-4-carboxylic acid], the Activity entry is “++ (activity>50% of CFTR amplifier+VX-809 (3 uM) with compound at 10 uM and Compound A at 3 uM)”.

As to `CCc1ccc(OCc2ccccc2)c2c(C(=O)O)cc(-c3oc4ccccc4c3C)nc12` [Compound 108, 5-(benzyloxy)-8-ethyl-2-(3-methyl-1-benzofuran-2-yl)quinoline-4-carboxylic acid], the Activity result was “++ (activity>50% of CFTR amplifier+VX-809 (3 uM) with compound at 10 uM and Compound A at 3 uM)”.

As to `Cc1c(-c2cc(C(=O)[O-])c3c(OC[C@@H]4C[C@H]5CC[C@@H](C4)O5)ccc(C)c3n2)sc2ccccc12.[Na+]` [Compound 358], the Activity entry was “++ (activity>50% of CFTR amplifier+VX-809 (3 uM) with compound at 10 uM and Compound A at 3 uM)”.

In the case of `CCc1ccc(O[C@@H]2CCC[C@H](C)C2)c2c(C(=O)[O-])cc(-c3sc4ccccc4c3C)nc12.[Na+]` [Compound 214, Sodium 8-Ethyl-2-(3-methyl-1-benzothiophen-2-yl)-5-[[(1R,3S)-3-methylcyclohexyl]oxy]quinoline-4-carboxylate], the Activity entry was “++ (activity>50% of CFTR amplifier+VX-809 (3 uM) with compound at 10 uM and Compound A at 3 uM)”.

On to `CCc1ccc(O[C@@H]2CCC[C@H](C)C2)c2c(C(=O)O)cc(-c3csc4ccccc34)nc12` [Compound 182, 2-(Benzo[b]thiophen-3-yl)-8-ethyl-5-(((1R,3S)-3-methylcyclohexyl)oxy)quinoline-4-carboxylic Acid], for which the Activity result is “++ (activity>50% of CFTR amplifier+VX-809 (3 uM) with compound at 10 uM and Compound A at 3 uM)”.

Take `Cc1c(-c2cc(C(=O)[O-])c3c(O[C@H](C)c4ccccc4)ccc(C)c3n2)oc2ccccc12.[Na+]` [Compound 212]: the Activity result is “++ (activity>50% of CFTR amplifier+VX-809 (3 uM) with compound at 10 uM and Compound A at 3 uM)”.

Regarding `Cc1c(-c2cc(C(=O)[O-])c3c(O[C@@H]4C[C@H]5CC[C@@H](C4)O5)ccc(C)c3n2)sc2ccccc12.[Na+]` [Compound 352], the Activity entry was “++ (activity>50% of CFTR amplifier+VX-809 (3 uM) with compound at 10 uM and Compound A at 3 uM)”.

Regarding `Cc1c(-c2cc(C(=O)[O-])c3c(O[C@H](C)c4ccc(S(C)(=O)=O)cc4)ccc(C)c3n2)sc2ccccc12.[Na+]` [Compound 265], the Activity entry was “++ (activity>50% of CFTR amplifier+VX-809 (3 uM) with compound at 10 uM and Compound A at 3 uM)”.

Take `Cc1cc(C)c2nc(-c3cc4ccccc4s3)nc(C(=O)O)c2c1` [Compound 4, 2-(1-Benzothiophen-2-yl)-6,8-dimethylquinazoline-4-carboxylic Acid]: the Activity entry was “+ (activity<50% of an CFTR amplifier (Compound A)+VX-809 (3 uM) with compound at 10 uM and Compound A at 3 uM)”.

With `Cc1c(-c2cc(C(=O)O)c3c(OCc4ccccc4)ccc(F)c3n2)oc2ccccc12` [Compound 110, 5-(Benzyloxy)-8-fluoro-2-(3-methyl-1-benzofuran-2-yl)quinoline-4-carboxylic acid], the Activity entry is “++ (activity>50% of CFTR amplifier+VX-809 (3 uM) with compound at 10 uM and Compound A at 3 uM)”.

As for `Cc1c(-c2cc(C(=O)[O-])c3c(OC[C@H]4C[C@](C)(O)C4)ccc(C)c3n2)sc2ccccc12.[Na+]` [Compound 321], the Activity result is “++ (activity>50% of CFTR amplifier+VX-809 (3 uM) with compound at 10 uM and Compound A at 3 uM)”.

`Cc1c(-c2cc(C(=O)[O-])c3c(O[C@@H]4C[C@H]5CC[C@@H](C4)O5)ccc(C)c3n2)oc2ccccc12.[Na+]` [Compound 354]: the Activity result is “++ (activity>50% of CFTR amplifier+VX-809 (3 uM) with compound at 10 uM and Compound A at 3 uM)”.

On to `COCC[C@H](Oc1ccc(C)c2nc(-c3sc4ccccc4c3C)cc(C(=O)[O-])c12)c1ccccc1.[Na+]` [Compound 312], for which the Activity result is “++ (activity>50% of CFTR amplifier+VX-809 (3 uM) with compound at 10 uM and Compound A at 3 uM)”.

In the case of `Cc1c(-c2cc(C(=O)O)c3cc(OC(F)F)cc(C)c3n2)oc2ccccc12` [Compound 118, 6-(Difluoromethoxy)-8-methyl-2-(3-methyl-1-benzofuran-2-yl)quinoline-4-carboxylic acid], the Activity result is “++ (activity>50% of CFTR amplifier+VX-809 (3 uM) with compound at 10 uM and Compound A at 3 uM)”.

For `Cc1c(-c2cc(C(=O)O)c3c(OCCc4ccccc4)ccc(C)c3n2)oc2ccccc12` [Compound 73, 8-methyl-2-(3-methyl-1-benzofuran-2-yl)-5-(2-phenylethoxy)quinoline-4-carboxylic acid], the Activity entry is “++ (activity>50% of CFTR amplifier+VX-809 (3 uM) with compound at 10 uM and Compound A at 3 uM)”.

With `CCc1ccc(OCc2cccc(C)c2)c2c(C(=O)O)cc(-c3csc4ccccc34)nc12` [Compound 188], the Activity result is “++ (activity>50% of CFTR amplifier+VX-809 (3 uM) with compound at 10 uM and Compound A at 3 uM)”.

In the case of `Cc1c(-c2cc(C(=O)[O-])c3c(O[C@H](C)c4ccc(OC(F)F)cc4)ccc(C)c3n2)oc2ccccc12.[Na+]` [Compound 235], the Activity entry was “++ (activity>50% of CFTR amplifier+VX-809 (3 uM) with compound at 10 uM and Compound A at 3 uM)”.

Take `Cc1ccc([C@H](C)Oc2ccc(C)c3nc(-c4sc5ccccc5c4C)cc(C(=O)[O-])c23)cc1.[Na+]` [Compound 227, Sodium 8-Methyl-2-(3-methyl-1-benzothiophen-2-yl)-5-[(1S)-1-(4-methylphenyl)ethoxy]quinoline-4-carboxylate]: the Activity result was “++ (activity>50% of CFTR amplifier+VX-809 (3 uM) with compound at 10 uM and Compound A at 3 uM)”.

`Cc1c(-c2cc(C(=O)[O-])c3c(O[C@@H](C)c4ccccc4)ccc(C)c3n2)oc2ccccc12.[Na+]` [Compound 213]: the Activity result is “++ (activity>50% of CFTR amplifier+VX-809 (3 uM) with compound at 10 uM and Compound A at 3 uM)”.

For the molecule `Cc1c(-c2cc(C(=O)[O-])c3c(O[C@@H]4CCC[C@H](C)C4)ccc(C)c3n2)sc2ccccc12.[Na+]` [Compound 218, Sodium 8-Methyl-2-(3-methyl-1-benzothiophen-2-yl)-5-[[(1R,3S)-3-methylcyclohexyl]oxy]quinoline-4-carboxylate], the Activity result is “++ (activity>50% of CFTR amplifier+VX-809 (3 uM) with compound at 10 uM and Compound A at 3 uM)”.

As to `Cc1c(-c2cc(C(=O)[O-])c3c(OC[C@H]4C[C@](C)(O)C4)ccc(C)c3n2)oc2ccccc12.[Na+]` [Compound 375], the Activity result was “++ (activity>50% of CFTR amplifier+VX-809 (3 uM) with compound at 10 uM and Compound A at 3 uM)”.

`Cc1c(-c2cc(C(=O)O)c3c(C)ccc(C)c3n2)oc2c(Cl)cccc12` [Compound 129, 2-(7-Chloro-3-methylbenzofuran-2-yl)-5,8-dimethylquinoline-4-carboxylic acid]: the Activity entry is “+ (activity<50% of an CFTR amplifier (Compound A)+VX-809 (3 uM) with compound at 10 uM and Compound A at 3 uM)”.

On to `Cc1ccc(OC(C)c2ccccc2)c2c(C(=O)[O-])cc(-c3cc4ccccn4c3)nc12.[Na+]` (centres unmarked) [Compound 328], for which the Activity result is “++ (activity>50% of CFTR amplifier+VX-809 (3 uM) with compound at 10 uM and Compound A at 3 uM)”.

With `Cc1c(-c2cc(C(=O)O)c3c(OC4CCc5ccccc54)ccc(C)c3n2)oc2ccccc12` (centres unmarked) [Compound 336], the Activity result was “++ (activity>50% of CFTR amplifier+VX-809 (3 uM) with compound at 10 uM and Compound A at 3 uM)”.

`Cc1c(-c2cc(C(=O)O)c3c(OC4CCCc5ccccc54)ccc(C)c3n2)oc2ccccc12` (centres unmarked) [Compound 335]: the Activity result is “++ (activity>50% of CFTR amplifier+VX-809 (3 uM) with compound at 10 uM and Compound A at 3 uM)”.

For `Cc1cc(C)c2nc(-c3sc4ccccc4c3C)cc(C(=O)O)c2c1` [Compound 18, 6,8-Dimethyl-2-(3-methylbenzo[b]thiophen-2-yl)quinoline-4-carboxylic acid], the Activity result was “+ (activity<50% of an CFTR amplifier (Compound A)+VX-809 (3 uM) with compound at 10 uM and Compound A at 3 uM)”.
